# Patent publication US10485236B2, “Triazole derivatives, intermediates thereof and their use as fungicides” (Bayer CropScience Aktiengesellschaft, priority 2015, dated 2019)
# Marks after values point to notes of the source that are not given here.
# Experiment: Measurement of LogP values by HPLC on reversed phase columns (EEC directive 79/831 Annex V.A8)
# Assay type: physicochemical
# Description: [table] If more than one Log P value is available within the same method, all the values are given and separated by “+”. Calibration was done with straight-chain alkan2-ones (with 3 to 16 carbon atoms) with known Log P values (measurement of Log P values using retention times with linear interpolation between successive alkanones). Lambda-max-values were determined using UV-spectra from 200 nm to 400 nm and the peak values of the chromatographic signals.
row,Structure (SMILES),LogP
1,CC(O)c1ccc(Oc2ccc(C(O)Cn3cncn3)c(Cl)n2)cc1 (mixture of isomers) [I.24],1.48^[a]
2,CC(O)(Cn1cncn1)c1cnc(Oc2ccc(Cl)cc2)cc1Cl (racemic) [I.08],2.50^[a]
3,CC(O)(Cn1cncn1)c1ccc(Oc2ccc(Cl)cc2)nc1Cl (racemic) [I.09],2.66^[a]
4,OC(Cn1cncn1)c1ccc(Oc2ccc(Cl)c(Cl)c2)nc1Cl (racemic) [I.10],2.80^[a]
5,OC(Cn1cncn1)c1ccc(Oc2ccc(OC(F)(F)F)c(Cl)c2)nc1Cl (racemic) [I.11],3.11^[a]
6,OC(Cn1cncn1)c1ccc(Oc2ccc(OC(F)(F)F)cc2)nc1Cl (racemic) [I.12],2.73^[a]
7,OC(Cn1cncn1)c1ccc(Oc2ccccc2)nc1Cl (racemic) [I.13],1.98^[a]
8,Cc1cc(Cl)ccc1Oc1ccc(C(O)Cn2cncn2)c(Cl)n1 (racemic) [I.15],2.75^[a]
9,OC(Cn1cncn1)c1ccc(Oc2ccc(F)cc2)nc1Cl (racemic) [I.17],2.08^[a]
10,OC(Cn1cncn1)c1ccc(Oc2ccc(F)cc2F)nc1Cl (racemic) [I.18],2.18^[a]
11,OC(Cn1cncn1)c1ccc(Oc2ccccc2F)nc1Cl (racemic) [I.19],2.08^[a]
12,OC(Cn1cncn1)c1ccc(Oc2cc(F)c(F)c(F)c2)nc1Cl (racemic) [I.20],1.65^[a]
13,OC(Cn1cncn1)c1cnc(Oc2ccccc2)cc1Cl (racemic) [I.21],1.92^[a]
14,OC(Cn1cncn1)c1ncc(Oc2ccccc2)cc1Cl (racemic) [I.22],2.01^[a]
15,OC(Cn1cncn1)c1ccc(Oc2ccc(Cl)cc2Cl)nc1Cl (racemic) [I.23],2.75^[a]
16,OC(Cn1cncn1)c1ccc(Oc2ccc(Cl)cc2)nc1C(F)F (racemic) [I.25],2.44^[a]
17,OC(Cn1cncn1)c1ccc(Oc2ccc(Cl)cc2)nc1OC(F)(F)F (racemic) [I.26],2.92^[a]
18,CC(O)(Cn1cncn1)c1ccc(Oc2ccc(F)cc2)nc1Cl (racemic) [I.27],2.28^[a]
19,Cc1cc(Cl)ccc1Oc1ccc(C(C)(O)Cn2cncn2)c(Cl)n1 (racemic) [I.28],2.94^[a]
20,COc1ccc(Oc2ccc(C(O)Cn3cncn3)c(Cl)n2)c(Cl)c1 (racemic) [I.30],2.32^[a]
21,COc1ccc(Oc2ccc(C(C)(O)Cn3cncn3)c(Cl)n2)c(Cl)c1 (racemic) [I.31],2.56^[a]

row,Structure (SMILES),LogP
1,CC(O)(Cn1cncn1)c1ccc(Oc2ccc(Cl)c(Cl)c2)nc1Cl (racemic) [I.32],3.09^[a]
2,CC(O)(Cn1cncn1)c1ccc(Oc2ccc(Cl)cc2)nc1OC(F)(F)F (racemic) [I.33],3.29^[a]
3,OC(Cn1cncn1)c1ccc(Oc2ccc(S(F)(F)(F)(F)F)cc2)nc1Cl (racemic) [I.34],2.90^[a]
4,CC(O)(Cn1cncn1)c1ccc(Oc2ccc(Br)cc2)nc1C(F)(F)F (racemic) [I.59],2.94^[a]
5,OC(Cn1cncn1)(c1ccc(Oc2ccc(Br)cc2)nc1C(F)(F)F)C1CC1 (racemic) [I.81],3.70^[a]
6,"OC(Cn1cncn1)(c1ccc(Oc2ccc(Br)cc2)nc1C(F)(F)F)C1CC1 (single isomer, unassigned) [Example 1.84]",3.41^[a]
7,"CC(O)(Cn1cncn1)c1cnc(Oc2ccc(Cl)cc2)cc1C(F)(F)F (single isomer, unassigned) [I.46]",2.93^[a]
8,"CC(O)(Cn1cncn1)c1ccc(Oc2ccc(Cl)cc2)nc1Cl (single isomer, unassigned) [I.51]",2.62^[a]
9,"CC(O)(Cn1cncn1)c1ccc(Oc2ccc(Cl)cc2)nc1Cl (single isomer, unassigned) [I.52]",2.62^[a]
10,"CC(O)(Cn1cncn1)c1cnc(Oc2ccc(Cl)cc2)cc1Cl (single isomer, unassigned) [I.53]",2.53^[a]
11,"CC(O)(Cn1cncn1)c1cnc(Oc2ccc(Cl)cc2)cc1Cl (single isomer, unassigned) [I.54]",2.53^[a]
12,"OC(Cn1cncn1)c1ccc(Oc2ccc(C(F)(F)F)cc2)nc1C(F)(F)F (single isomer, unassigned) [I.72]",2.86^[a]
13,"OC(Cn1cncn1)c1cnc(Oc2ccc(S(F)(F)(F)(F)F)cc2)cc1C(F)(F)F (single isomer, unassigned) [I.83]",3.11^[a]
14,"OC(Cn1cncn1)c1cnc(Oc2ccc(S(F)(F)(F)(F)F)cc2)cc1C(F)(F)F (single isomer, unassigned) [I.86]",3.11^[a]
15,"OC(Cn1cncn1)c1cnc(Oc2ccc(C(F)(F)F)cc2)cc1C(F)(F)F (single isomer, unassigned) [I.92]",2.86^[a]
16,"OC(Cn1cncn1)(c1ccc(Oc2ccc(Br)cc2)nc1C(F)(F)F)C1CC1 (single isomer, unassigned) [I.99]",3.41^[a]
17,"CC(O)(Cn1cncn1)c1ccc(Oc2ccc(Br)cc2)nc1C(F)(F)F (single isomer, unassigned) [I.101]",2.94^[a]
18,"CC(O)(Cn1cncn1)c1ccc(Oc2ccc(Br)cc2)nc1C(F)(F)F (single isomer, unassigned) [I.102]",2.94^[a]
19,CC(O)(Cn1cncn1)c1cnc(Oc2ccc(S(F)(F)(F)(F)F)cc2)cc1C(F)(F)F (stereo not shown) [I.37],3.33^[a]
20,OC(Cn1cncn1)c1ccc(Oc2ccc(C(F)F)cc2)nc1Cl (stereo not shown) [I.38],2.17^[a]
21,OC(Cn1cncn1)c1ccc(Oc2ccc(Br)cc2)nc1C(F)(F)F (stereo not shown) [I.40],2.82^[a]

row,Structure (SMILES),LogP
1,OC(Cn1cncn1)c1ccc(Oc2ccc(Cl)cc2)nc1F (stereo not shown) [I.41],2.23^[a]
2,CC(O)(Cn1cncn1)c1ccc(Oc2ccc(Cl)cc2)nc1F (stereo not shown) [I.42],2.46^[a]
3,OC(Cn1cncn1)c1cnc(Oc2ccc(OC(F)(F)F)cc2)cc1C(F)(F)F (stereo not shown) [I.43],3.00^[a]
4,CC(O)(Cn1cncn1)c1cnc(Oc2ccc(OC(F)(F)F)cc2)cc1C(F)(F)F (stereo not shown) [I.44],3.23^[a]
5,OC(Cn1cncn1)c1cnc(Oc2ccc(Br)cc2)cc1C(F)(F)F (stereo not shown) [I.48],2.75^[a]
6,CC(O)(Cn1cncn1)c1cnc(Oc2ccc(Br)cc2)cc1C(F)(F)F (stereo not shown) [I.49],2.96^[a]
7,CC(O)(Cn1cncn1)c1cnc(Oc2ccc(C(F)(F)F)cc2)cc1C(F)(F)F (stereo not shown) [I.50],3.11^[a]
8,OC(Cn1cncn1)c1cnc(Oc2ccc(C(F)F)cc2)cc1C(F)(F)F (stereo not shown) [I.55],2.55^[a]
9,CC(O)(Cn1cncn1)c1cnc(Oc2ccc(C(F)F)cc2)cc1C(F)(F)F (stereo not shown) [I.56],2.73^[a]
10,OC(Cn1cncn1)c1cnc(Oc2ccc(Cl)cc2F)cc1C(F)(F)F (stereo not shown) [I.57],2.86^[a]
11,CC(O)(Cn1cncn1)c1cnc(Oc2ccc(Cl)cc2F)cc1C(F)(F)F (stereo not shown) [I.58],3.02^[a]
12,OC(Cn1cncn1)c1ccc(Oc2ccc(S(F)(F)(F)(F)F)cc2)nc1C(F)(F)F (stereo not shown) [I.60],3.08^[a]
13,OC(Cn1cncn1)c1ccc(Oc2ccc(C(F)(F)F)cc2)nc1C(F)(F)F (stereo not shown) [I.61],2.84^[a]
14,CC(O)(Cn1cncn1)c1ccc(Oc2ccc(S(F)(F)(F)(F)F)cc2)nc1C(F)(F)F (stereo not shown) [I.62],3.25^[a]
15,OC(Cn1cncn1)c1cnc(Oc2ccc(Br)cc2)cc1C(F)F (stereo not shown) [I.63],2.59^[a]
16,CC(O)(Cn1cncn1)c1cnc(Oc2ccc(Cl)cc2)cc1C(F)F (stereo not shown) [I.64],2.68^[a]
17,CC(O)(Cn1cncn1)c1ccc(Oc2ccc(C(F)(F)F)cc2)nc1C(F)(F)F (stereo not shown) [I.65],3.04^[a]
18,CC(O)(Cn1cncn1)c1ccc(Oc2ccc(Cl)cc2F)nc1C(F)(F)F (stereo not shown) [I.66],2.80^[a]
19,CC(O)(Cn1cncn1)c1ccc(Oc2ccc(Cl)cc2)nc1C(F)(F)F (stereo not shown) [I.67],2.68^[a]
20,OC(Cn1cncn1)c1cnc(Oc2ccc(Cl)cc2)cc1Cl (stereo not shown) [I.68],2.48^[a]
21,C=CC(O)(Cn1cncn1)c1cnc(Oc2ccc(C(F)(F)F)cc2)cc1C(F)(F)F (stereo not shown) [I.69],3.33^[a]

row,Structure (SMILES),LogP
1,OC(Cn1cncn1)c1ccc(Oc2ccc(Cl)cc2F)nc1C(F)(F)F (stereo not shown) [I.70],2.78^[a]
2,OC(Cn1cncn1)(c1ccc(Oc2ccc(Cl)cc2)nc1C(F)(F)F)C1CC1 (stereo not shown) [I.71],3.35^[a]
3,OC(Cn1cncn1)c1ccc(Oc2ccc(Br)cc2)nc1C(F)F (stereo not shown) [I.73],2.50^[a]
4,OC(Cn1cncn1)c1ccc(Oc2ccc(C(F)F)cc2)nc1C(F)(F)F (stereo not shown) [I.74],2.49^[a]
5,CC(C)c1ccc(Oc2ccc(C(C)(O)Cn3cncn3)c(C(F)(F)F)n2)cc1 (stereo not shown) [I.75],3.35^[a]
6,CCC(O)(Cn1cncn1)c1cnc(Oc2ccc(C(F)(F)F)cc2)cc1C(F)(F)F (stereo not shown) [I.76],3.52^[a]
7,CC(O)(Cn1cncn1)c1ccc(Oc2ccc(F)cc2)nc1Oc1ccc(F)cc1 (stereo not shown) [I.77],3.13^[a]
8,CC(O)(Cn1cncn1)c1cnc(Oc2ccc(C(F)(F)F)cc2)cc1Cl (stereo not shown) [I.78],2.88^[a]
9,OC(Cn1cncn1)c1ccc(Oc2ccc(OC(F)(F)F)cc2)nc1C(F)(F)F (stereo not shown) [I.79],2.89^[a]
10,OC(Cn1cncn1)(c1ccc(Oc2ccc(Cl)cc2)nc1C(F)(F)F)C1CC1 (stereo not shown) [I.80],3.32^[a]
11,CC(O)(Cn1cncn1)c1cnc(Oc2ccc(Br)cc2)cc1C(F)F (stereo not shown) [I.82],2.78^[a]
12,OC(Cn1cncn1)(c1ccc(Oc2ccc(Br)cc2)nc1C(F)(F)F)C(F)(F)F (stereo not shown) [I.85],3.48^[a]
13,OC(Cn1cncn1)(c1ccc(Oc2ccc(C(F)(F)F)cc2)nc1C(F)(F)F)C1CC1 (stereo not shown) [I.87],3.57^[a]
14,OC(Cn1cncn1)c1cnc(Oc2ccc(C(F)(F)F)cc2)cc1Cl (stereo not shown) [I.88],2.64^[a]
15,CC(O)(Cn1cncn1)c1ccc(Oc2ccc(Cl)cc2F)nc1C(F)(F)F (stereo not shown) [I.89],3.15^[a]
16,OC(Cn1cncn1)c1ccc(Oc2ccc(Cl)cc2F)nc1C(F)(F)F (stereo not shown) [I.90],2.88^[a]
17,OC(Cn1cncn1)(c1ccc(Oc2ccc(C(F)F)cc2)nc1C(F)(F)F)C1CC1 (stereo not shown) [I.93],3.13^[a]
18,OC(Cn1cncn1)c1cnc(Oc2ccc(Cl)cc2)cc1C(F)F (stereo not shown) [I.94],2.13^[a]
19,CC(O)(Cn1cncn1)c1ccc(Oc2ccc(OC(F)(F)F)cc2)nc1C(F)(F)F (stereo not shown) [I.95],2.98^[a]
